Test results published in patent publication US10442793B2, “Oxa spiro derivative, preparation method therefor, and applications thereof in medicines” (Jiangsu Hengrui Medicine Co., Ltd., priority 2015, dated 2019).
Read-outs that look alike come from different tables or passages of the source.

Key:
Assay type in all cases: cell-based
hERG potassium channel = target: T1, hERG potassium channel (Homo sapiens, UniProt Q12809); assay: Blocking of hERG potassium current, automatic patch clamp on HEK293-hERG cells
T1 construct: expressed in transfected cells; host or cells: HEK293
Method: The blocking effect of the compounds of the present invention and the positive compound TRV-130 (Journal of Pharmacology and Experimental Therapeutics, Volume 344, Issue 3, Pages 708-717, 2013) on hERG potassium current was tested on a stable cell line transfected with hERG potassium channel using an automatic patch clamp.
HEK293-hERG stabilized cells were subcultured at a density of 1:4 in a MEM/EBSS medium (10% FBS, 400 μg/ml G418, 1% MEM nonessential amino acid solution (100×), 1% sodium pyruvate solution) for 48-72 hours, then the automatic patch clamp experiment was performed. The cells were digested with 0.25% trypsin on the day of the experiment, then the cells were collected by centrifugation and resuspended with extracellular fluid (140 mM NaCl, 4 mM KCl, 1 mM MgCl2, 2 mM CaCl2, 5 mM D-glucose monohydrate, 10 mM Hepes, pH 7.4, 298 mOsmol) into a cell suspension. The cell suspension was placed on the cell bank of the Patchliner instrument, and the cells were added to the chip (NPC-16) by the negative pressure controller of the Patchliner instrument, with negative pressure attracting individual cells to the small hole of the chip. After the whole cell model was formed, the instrument generated the hERG current according to the preset hERG current and voltage program, and then the instrument perfused the compound from low concentration to high concentration automatically. HEAK Patchmaster, HEAK EPC10 patch clamp amplifier (Nanion), Pathliner software, and a data analysis software provided by Pathcontrol HTsoftware were used to analyze the current of the compounds at different concentrations and the current of the blank control.
The blocking effect of the compounds of the present invention on hERG potassium current was determined by the above test, and the IC50 values are shown in Table 3.

μ-opioid receptors (MOR) = target: T2, μ-opioid receptors (MOR) (Homo sapiens, UniProt P35372); assay: MOR activity test: HEK293/MOR/CRE luciferase reporter, agonizing MOR and affecting downstream cAMP levels; conditions: for Emax: HEK293, maximum effect of TRV-130 is 100%, read-out: Emax on agonizing MOR receptor and affecting cAMP levels
T2 construct: host or cells: HEK293
Description: The compounds of the present invention can activate μ-opioid receptors (MOR). Activated MOR can regulate intracellular cAMP levels, and cAMP enters the nucleus and binds to the CRE region of the reporter gene luciferase, thereby initiating the expression of the reporter gene. Luciferase can react with its substrate to emit fluorescence, and the measured fluorescence signals reflect the agonistic activity of the compounds.
The activity of the test example compounds on agonizing MOR and affecting downstream cAMP levels was tested by the following method.
MOR/pcDNA3.1 (+) and CRE/pGL4.29 were transferred into HEK293 cells. G418 and hygromycin were added into the culture medium, and HEK293/MOR/CRE monoclonal cell lines were screened in a 96-well cell culture plate.
HEK293/MOR/CRE monoclonal cells were cultured in a DMEM/high glucose medium (10% FBS, 1 mg/ml G418, 200 μg/ml hygromycin, mixed uniformly), and passaged every 3 days. On the day of the experiment, a cell suspension was prepared with a fresh cell medium, added to a 96 well plate (BD, #356692) with 20,000 cells/well, and incubated in 5% CO2 at 37° C. On the second day, the compound was dissolved in pure DMSO at a concentration of 20 mM, then formulated with DMSO to a first concentration of 4 mM and diluted in 10 fold concentration gradient to 6 concentrations. Then, 90 μl of DMSO was added to blank and control wells. Then, formulated compound was prepared by adding 2.5 μl of the compound solutions formulated in DMSO at a gradient concentration to 97.5 μl of a fresh cell culture medium containing 5 μM foscolin. Then, 10 μl of the formulated compound was added to the cell culture plate to make the final concentration of the compound 10000, 1000, 100, 10, 1, 0.1, or 0.01 nM, and the plate was incubated at 37° C., in 5% CO2 for 5 hours. In a 96-well cell culture plate, 100 μl of luciferase assay solution (Promega, # E6110) was added to each well. The plate was placed in the dark at room temperature for 10-15 minutes, blowed and aspirated 10 times, and 100 μl were pipetted to a 96 well white plate. The chemiluminescence signal values were read in a microplate reader (PE, Victor3), and the read data was processed using software.
The activity of the compounds of the present invention on agonizing MOR and affecting downstream cAMP levels was determined by the above test, and the EC50 values are shown in Table 1.1.

MOR receptor = target: T3, MOR receptor (Homo sapiens, UniProt P35372); assay: Activation of the β-arrestin signaling pathway of MOR receptor (CHO-K1 OPRM1 β-Arrestin cells, DiscoveRX); conditions: for Emax: maximum effect of morphine is 100%
T3 construct: host or cells: CHO-K1
Method: The experiment objective is to determine the activity of the compounds of the present invention on activating the β-arrestin signaling pathway of MOR receptor.
The drug was prepared as a 20 mM stock solution that was later diluted with 100% DMSO to a 200×concentration gradient, and then diluted with a 20-fold AssayComplete™ Cell Plating 2 Reagent (93-0563R2B, DiscoveRX) medium. The cell culture plate inoculated on the first day was taken out, and 10 μl of the diluted drug or control (0.5% DMSO) was added to each well. The plate was gently shaken and placed in an incubator at 37° C., 5% CO2 for 90 minutes. Finally, 50 μL of a detection reagent (93-0001, DiscoveRX) were added to each well, and the plate was placed at room temperature for 60 minutes. The absorbance values were measured by the cold light model of a microplate reader (PE, Victor3). The EC50 values of the compounds were calculated by Graphpad Prism software according to each concentration of the compound and the corresponding signal value.

[1] = CHO-K1 OPRM1 β-Arrestin cells, 90 minutes, read-out: EC50 on the β-arrestin signaling pathway
[2] = HEK293/MOR/CRE cells, 5 h incubation, forskolin, read-out: EC50 on agonizing MOR receptor and affecting cAMP levels

T2 sequence (P35372 whole entry): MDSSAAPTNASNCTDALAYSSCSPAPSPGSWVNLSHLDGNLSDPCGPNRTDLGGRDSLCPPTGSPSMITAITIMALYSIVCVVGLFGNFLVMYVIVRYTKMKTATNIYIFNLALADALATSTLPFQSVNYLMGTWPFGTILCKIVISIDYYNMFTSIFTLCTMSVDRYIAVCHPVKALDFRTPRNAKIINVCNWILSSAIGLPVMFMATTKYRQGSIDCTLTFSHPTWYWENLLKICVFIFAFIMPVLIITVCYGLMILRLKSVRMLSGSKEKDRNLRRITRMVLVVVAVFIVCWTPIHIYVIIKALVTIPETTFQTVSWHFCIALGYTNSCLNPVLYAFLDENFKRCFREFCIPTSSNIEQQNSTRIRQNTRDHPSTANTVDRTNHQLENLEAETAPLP
T3 sequence (P35372 whole entry): as above
T1 sequence (Q12809 whole entry): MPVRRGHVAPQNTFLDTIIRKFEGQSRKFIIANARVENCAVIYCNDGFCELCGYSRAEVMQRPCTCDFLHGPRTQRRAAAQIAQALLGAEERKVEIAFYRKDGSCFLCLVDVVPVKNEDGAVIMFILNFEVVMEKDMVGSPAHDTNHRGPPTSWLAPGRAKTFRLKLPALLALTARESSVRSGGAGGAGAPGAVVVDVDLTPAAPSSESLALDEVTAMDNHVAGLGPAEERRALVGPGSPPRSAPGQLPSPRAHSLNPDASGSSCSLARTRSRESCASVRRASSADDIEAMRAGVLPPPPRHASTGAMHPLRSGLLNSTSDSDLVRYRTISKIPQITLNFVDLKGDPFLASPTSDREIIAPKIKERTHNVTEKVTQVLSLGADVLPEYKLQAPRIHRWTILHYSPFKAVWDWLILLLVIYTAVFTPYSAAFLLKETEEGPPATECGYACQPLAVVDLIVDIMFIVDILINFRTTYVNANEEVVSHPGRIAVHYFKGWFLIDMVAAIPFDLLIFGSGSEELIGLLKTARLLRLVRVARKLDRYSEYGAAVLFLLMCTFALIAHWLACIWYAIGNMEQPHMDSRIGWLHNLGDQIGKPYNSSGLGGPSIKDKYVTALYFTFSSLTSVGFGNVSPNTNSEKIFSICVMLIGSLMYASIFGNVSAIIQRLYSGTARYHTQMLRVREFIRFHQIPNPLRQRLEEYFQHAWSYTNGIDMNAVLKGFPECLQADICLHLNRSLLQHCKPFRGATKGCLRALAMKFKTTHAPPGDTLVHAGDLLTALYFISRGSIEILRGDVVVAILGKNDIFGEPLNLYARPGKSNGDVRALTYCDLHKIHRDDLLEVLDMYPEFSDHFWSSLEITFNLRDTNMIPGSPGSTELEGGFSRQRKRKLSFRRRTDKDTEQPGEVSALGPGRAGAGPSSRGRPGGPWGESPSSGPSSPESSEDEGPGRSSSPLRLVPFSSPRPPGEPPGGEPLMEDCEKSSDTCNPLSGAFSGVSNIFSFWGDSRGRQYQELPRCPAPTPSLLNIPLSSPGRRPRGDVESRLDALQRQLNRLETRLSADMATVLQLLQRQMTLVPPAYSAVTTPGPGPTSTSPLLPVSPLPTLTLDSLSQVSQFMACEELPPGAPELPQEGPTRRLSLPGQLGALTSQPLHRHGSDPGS

| SMILES | EC50 (μ-opioid receptors (MOR)) [nM] | Emax (μ-opioid receptors (MOR)) [%] | other results |
| --- | --- | --- | --- |
| c1ccc([C@]2(CCN[C@H]3CCOc4ccccc43)CCOC3(CCCC3)C2)nc1 (single isomer, unassigned) [Example 5] | 5 | 122 | IC50 (hERG potassium channel): 6200 nM |
| CCN1CC[C@@H](NCC[C@@]2(c3ccccn3)CCOC3(CCCC3)C2)c2ccccc21 [Example 2, (R)-1-ethyl-N-(2-((R)-9-(pyridin-2-yl)-6-oxaspiro[4.5]decan-9-yl)ethyl)-1,2,3,4-tetrahydroquinolin-4-amine] |  | 0 | EC50 (MOR receptor; [1]): > 10000 nM; Emax (MOR receptor): 4%; EC50 (μ-opioid receptors (MOR); [2]): > 10000 nM |
| O[C@@H]1Cc2ccccc2[C@H]1NCC[C@@]1(c2ccccn2)CCOC2(CCCC2)C1 [Example 3, (1R,2R)-1-((2-((R)-9-(pyridin-2-yl)-6-oxaspiro[4.5]decan-9-yl)ethyl)amino)-2,3-dihydro-1H-inden-2-ol] | 2 | 124 | IC50 (hERG potassium channel): > 30000 nM |
| CO[C@@H]1Cc2ccccc2[C@H]1NCC[C@@]1(c2ccccn2)CCOC2(CCCC2)C1 [Example 4, (1R,2R)-2-methoxy-N-(2-((R)-9-(pyridin-2-yl)-6-oxaspiro[4.5]decan-9-yl)ethyl)-2,3-dihydro-1H-inden-1-amine] | 1 | 129 |  |
| c1ccc([C@]2(CCN[C@H]3CCOc4ccccc43)CCOC3(CCCC3)C2)nc1 [Example 6, (S)-N-(2-((R)-9-(pyridin-2-yl)-6-oxaspiro[4.5]decan-9-yl)ethyl)chroman-4-amine] | 1 | 115 | IC50 (hERG potassium channel): 3800 nM |
| c1ccc([C@]2(CCN[C@@H]3CCOc4ccccc43)CCOC3(CCCC3)C2)nc1 [Example 7, (R)-N-(2-((R)-9-(pyridin-2-yl)-6-oxaspiro[4.5]decan-9-yl)ethyl)chroman-4-amine] | > 10000 | 0 |  |
| Fc1ccc2c(c1)C(NCC[C@@]1(c3ccccn3)CCOC3(CCCC3)C1)CCO2 (stereo partly drawn) [Example 8, 6-fluoro-N-(2-((R)-9-(pyridin-2-yl)-6-oxaspiro[4.5]decan-9-yl)ethyl)chroman-4-amine] | 3 | 114 |  |
| c1ccc([C@]2(CCN[C@@H]3CCCc4ccccc43)CCOC3(CCCC3)C2)nc1 [Example 9, (R)-N-(2-((R)-9-(pyridin-2-yl)-6-oxaspiro[4.5]decan-9-yl)ethyl)-1,2,3,4-tetrahydronaphthalen-1-amine] | > 10000 | 48 |  |
| c1ccc([C@]2(CCN[C@H]3CCCc4ccccc43)CCOC3(CCCC3)C2)nc1 [Example 10, (S)-N-(2-((R)-9-(pyridin-2-yl)-6-oxaspiro[4.5]decan-9-yl)ethyl)-1,2,3,4-tetrahydronaphthalen-1-amine] | 4 | 113 |  |
| c1ccc([C@]2(CCN[C@@H]3CCc4ccccc43)CCOC3(CCCC3)C2)nc1 [Example 15, (R)-N-(2-((R)-9-(pyridin-2-yl)-6-oxaspiro[4.5]decan-9-yl)ethyl)-2,3-dihydro-1H-inden-1-amine] | > 10000 | 0 |  |
| CO[C@H]1Cc2ccccc2[C@@H]1NCC[C@@]1(c2ccccn2)CCOC2(CCCC2)C1 [Example 17, (1S,2S)-2-methoxy-N-(2-((R)-9-(pyridin-2-yl)-6-oxaspiro[4.5]decan-9-yl)ethyl)-2,3-dihydro-1H-inden-1-amine] | > 10000 | 0 |  |
| O[C@H]1Cc2ccccc2[C@@H]1NCCC1(c2ccccn2)CCOC2(CCCC2)C1 (stereo partly drawn) [Example 18, (1S,2S)-1-((2-(9-(pyridin-2-yl)-6-oxaspiro[4.5]decan-9-yl)ethyl)amino)-2,3-dihydro-1H-inden-2-ol] | > 10000 | 4 |  |
| COC[C@@H]1CC[C@H](NCC[C@@]2(c3ccccn3)CCOC3(CCCC3)C2)c2ccccc21 [Example 23, (1S,4R)-4-(methoxymethyl)-N-(2-((R)-9-(pyridin-2-yl)-6-oxaspiro[4.5]decan-9-yl)ethyl)-1,2,3,4-tetrahydronaphthalen-1-amine] | 5 | 120 |  |
| C=C1CC[C@H](NCC[C@@]2(c3ccccn3)CCOC3(CCCC3)C2)c2ccccc21 [Example 28, (S)-4-methylene-N-(2-((R)-9-(pyridin-2-yl)-6-oxaspiro[4.5]decan-9-yl)ethyl)-1,2,3,4-tetrahydronaphthalen-1-amine] |  |  | EC50 (MOR receptor): 15 nM; Emax (MOR receptor): 22% |
| N#CCO[C@H]1CC[C@H](NCC[C@@]2(c3ccccn3)CCOC3(CCCC3)C2)c2ccccc21 [Example 29, 2-(((1S,4S)-4-((2-((R)-9-(pyridin-2-yl)-6-oxaspiro[4.5]decan-9-yl)ethyl)amino)-1,2,3,4-tetrahydronaphthalen-1-yl)oxy)acetonitrile] |  | 112 | EC50 (MOR receptor; [1]): 33 nM; Emax (MOR receptor): 32%; EC50 (μ-opioid receptors (MOR); [2]): 7 nM |
| CO[C@@H]1CC[C@H](NCC[C@@]2(c3ccccn3)CCOC3(CCCC3)C2)c2ccccc21 [Example 30, (1S,4R)-4-methoxy-N-(2-((R)-9-(pyridin-2-yl)-6-oxaspiro[4.5]decan-9-yl)ethyl)-1,2,3,4-tetrahydronaphthalen-1-amine] | 2 | 126 |  |
| N#CCC1CC[C@H](NCC[C@@]2(c3ccccn3)CCOC3(CCCC3)C2)c2ccccc21 (stereo partly drawn) [Example 32, 2-((4S)-4-((2-((R)-9-(pyridin-2-yl)-6-oxaspiro[4.5]decan-9-yl)ethyl)amino)-1,2,3,4-tetra hydronaphthalen-1-yl)acetonitrile] |  | 133 | EC50 (μ-opioid receptors (MOR); [2]): 0.8 nM |
| c1ccc([C@]2(CCN[C@H]3CCC4(OCCO4)c4ccccc43)CCOC3(CCCC3)C2)nc1 [Example 33, (S)-N-(2-((R)-9-(pyridin-2-yl)-6-oxaspiro[4.5]decan-9-yl)ethyl)-3,4-dihydro-2H-spiro[naphthalen-1,2′-[1,3]dioxolane]-4-amine] |  |  | Emax (MOR receptor): 27% |
| CCCO[C@H]1CC[C@H](NCC[C@@]2(c3ccccn3)CCOC3(CCCC3)C2)c2ccccc21 [Example 34, (1S,4S)-4-propoxy-N-(2-((R)-9-(pyridin-2-yl)-6-oxaspiro[4.5]decan-9-yl)ethyl)-1,2,3,4-tetrahydronaphthalen-1-amine] |  |  | EC50 (MOR receptor; [1]): 16 nM; Emax (MOR receptor): 10% |
| COc1ccsc1CNCC[C@@]1(c2ccccn2)CCOC2(CCCC2)C1 [TRV-130, reference compound] |  |  | IC50 (hERG potassium channel): 1600 nM |
